Patent publication US10681909B2, “Herbicidal triazoles” (FMC Corporation, priority 2014, dated 2020)

How the values were obtained:
pigweed, palmer [1] = assay: Test E postemergence; format: in vivo, Amaranthus palmeri; details: scale 0 to 100
Description: (§1) Seeds of plant species selected from corn (Zea mays), soybean (Glycine max), lambsquarters (Chenopodium album), poinsettia, wild (wild poinsettia, Euphorbia heterophylla), pigweed, palmer (palmer pigweed, Amaranthus palmeri), waterhemp (common waterhemp, Amaranthus rudis), surinam grass (Brachiaria decumbens), crabgrass, large (large crabgrass, Digitaria sanguinalis), crabgrass, Brazilian (Brazilian crabgrass, Digitaria horizontalis), panicum, fall (fall panicum, Panicum dichotomiflorum), foxtail, giant (giant foxtail, Setaria faberii), foxtail, green (green foxtail, Setaria viridis), goosegrass (Eleusine indica), johnsongrass (Sorghum halepense), ragweed (common ragweed, Ambrosia elatior), barnyardgrass (Echinochloa crus-galli), sandbur (southern sandbur, Cenchrus echinatus), arrowleaf sida (Sida rhombifolia), ryegrass, Italian (Italian ryegrass, Lolium multiflorum), dayflower, VA (Virginia dayflower, Commelina virginica), field bindweed (Convolvulus arvensis), cocklebur (common cocklebur, Xanthium strumarium), morningglory (Ipomoea coccinea), nightshade (eastern black nightshade, Solanum ptycanthum), kochia (Kochia scoparia), nutsedge, yellow (yellow nutsedge, Cyperus esculentus), smartweed (ladysthumb smartweed, Polygonum persicaria), velvetleaf (Abutilon theophrasti), horseweed (Conyza canadensis), and beggarticks (hairy beggarticks, Bidens pilosa), were planted into a silt loam soil and treated preemergence with test chemicals formulated in a non-phytotoxic solvent mixture which included a surfactant.
(§2) At the same time, plants from these crop and weed species and also waterhemp_RES1, (ALS & Triazine resistant common waterhemp, Amaranthus rudis), and waterhemp_RES2, (ALS & HPPD resistant common waterhemp, Amaranthus rudis) were planted in pots containing Sunshine Redi-Earth® planting medium comprising spaghnum peat moss, vermiculite, starter nutrients and dolomitic limestone were treated with postemergence applications of test chemicals formulated in the same manner. Plants ranged in height from 2 to 18 cm for postemergence treatments (1- to 4-leaf stage). Treated plants and controls were maintained in a greenhouse for 14 to 21 d, after which time all species were compared to controls and visually evaluated. Plant response ratings, summarized in Table E, are based on a scale of 0 to 100 where 0 is no effect and 100 is complete control. A dash (-) response means no test result.

ryegrass, Italian = assay: Test E preemergence; format: in vivo, Lolium multiflorum; details: scale 0 to 100
Description: as §1, §2

crabgrass, Brazilian [2] = assay: Test E postemergence; format: in vivo, Digitaria horizontalis; details: Brazil, scale 0 to 100
Description: as §1, §2

foxtail, giant = assay: Test E preemergence; format: in vivo, Setaria faberii; details: scale 0 to 100
Description: as §1, §2

waterhemp = assay: Test E preemergence; format: in vivo, Amaranthus rudis; details: scale 0 to 100
Description: as §1, §2

pigweed, palmer [3] = assay: Test E preemergence; format: in vivo, Amaranthus palmeri; details: scale 0 to 100
Description: as §1, §2

nightshade = assay: Test E preemergence; format: in vivo, Solanum ptycanthum; details: scale 0 to 100
Description: as §1, §2

surinam grass = assay: Test E preemergence; format: in vivo, Brachiaria decumbens; details: scale 0 to 100
Description: as §1, §2

barnyardgrass [4] = assay: Test E preemergence; format: in vivo, Echinochloa crus-galli; details: scale 0 to 100
Description: as §1, §2

crabgrass, Brazilian [5] = assay: Test E preemergence; format: in vivo, Digitaria horizontalis; details: Brazil, scale 0 to 100
Description: as §1, §2

corn = assay: Test E postemergence; format: in vivo, Zea mays; details: scale 0 to 100
Description: as §1, §2

goosegrass = assay: Test E preemergence; format: in vivo, Eleusine indica; details: scale 0 to 100
Description: as §1, §2

ragweed = assay: Test E preemergence; format: in vivo, Ambrosia elatior; details: scale 0 to 100
Description: as §1, §2

morningglory = assay: Test E preemergence; format: in vivo, Ipomoea coccinea; details: scale 0 to 100
Description: as §1, §2

panicum, fall = assay: Test E postemergence; format: in vivo, Panicum dichotomiflorum; details: scale 0 to 100
Description: as §1, §2

soybean [6] = assay: Test E postemergence; format: in vivo, Glycine max; details: scale 0 to 100
Description: as §1, §2

arrowleaf sida = assay: Test E preemergence; format: in vivo, Sida rhombifolia; details: scale 0 to 100
Description: as §1, §2

dayflower, VA = assay: Test E postemergence; format: in vivo, Commelina virginica; details: scale 0 to 100
Description: as §1, §2

soybean [7] = assay: Test E preemergence; format: in vivo, Glycine max; details: scale 0 to 100
Description: as §1, §2

barnyardgrass [8] = assay: Test E postemergence; format: in vivo, Echinochloa crus-galli; details: scale 0 to 100
Description: as §1, §2

What does the source list for CCc1nc(-c2ccc(C(F)(F)F)cc2)nn1Cc1ccnc(C(F)(F)F)c1 [Compound 1, 4-[[5-ethyl-3-[4-(trifluoromethyl)phenyl]-1H-1,2,4-triazol-1-yl]methyl]-2-(trifluoromethyl)pyridine]?
Plant response rating (pigweed, palmer [1]; 16 g ai/ha): 80; Plant response rating (pigweed, palmer [1]; 31 g ai/ha): 90; Plant response rating (pigweed, palmer [1]; 62 g ai/ha): 90; Plant response rating (pigweed, palmer [1]; 125 g ai/ha): 100; Plant response rating (pigweed, palmer [1]; 250 g ai/ha): 100; Plant response rating (ryegrass, Italian; 16 g ai/ha): 0; Plant response rating (ryegrass, Italian; 31 g ai/ha): 0; Plant response rating (ryegrass, Italian; 62 g ai/ha): 20; Plant response rating (ryegrass, Italian; 125 g ai/ha): 20; Plant response rating (ryegrass, Italian; 250 g ai/ha): 40; Plant response rating (crabgrass, Brazilian [2]; 16 g ai/ha): 20; Plant response rating (crabgrass, Brazilian [2]; 31 g ai/ha): 20; Plant response rating (crabgrass, Brazilian [2]; 62 g ai/ha): 30; Plant response rating (crabgrass, Brazilian [2]; 125 g ai/ha): 30; Plant response rating (crabgrass, Brazilian [2]; 250 g ai/ha): 40; Plant response rating (foxtail, giant; 16 g ai/ha): 20; Plant response rating (foxtail, giant; 31 g ai/ha): 30; Plant response rating (foxtail, giant; 62 g ai/ha): 80; Plant response rating (foxtail, giant; 125 g ai/ha): 80; Plant response rating (foxtail, giant; 250 g ai/ha): 98; Plant response rating (waterhemp; 16 g ai/ha): 20; Plant response rating (waterhemp; 31 g ai/ha): 95; Plant response rating (waterhemp; 62 g ai/ha): 95; Plant response rating (waterhemp; 125 g ai/ha): 100; Plant response rating (waterhemp; 250 g ai/ha): 100; Plant response rating (pigweed, palmer [3]; 16 g ai/ha): 80; Plant response rating (pigweed, palmer [3]; 62 g ai/ha): 98; Plant response rating (pigweed, palmer [3]; 125 g ai/ha): 100; Plant response rating (pigweed, palmer [3]; 250 g ai/ha): 100; Plant response rating (nightshade; 16 g ai/ha): 50; Plant response rating (nightshade; 62 g ai/ha): 75; Plant response rating (nightshade; 125 g ai/ha): 90; Plant response rating (nightshade; 250 g ai/ha): 95; Plant response rating (surinam grass; 16 g ai/ha): 0; Plant response rating (surinam grass; 31 g ai/ha): 0; Plant response rating (surinam grass; 62 g ai/ha): 10; Plant response rating (surinam grass; 125 g ai/ha): 20; Plant response rating (surinam grass; 250 g ai/ha): 20; Plant response rating (barnyardgrass [4]; 16 g ai/ha): 0; Plant response rating (barnyardgrass [4]; 31 g ai/ha): 10; Plant response rating (barnyardgrass [4]; 62 g ai/ha): 30; Plant response rating (barnyardgrass [4]; 125 g ai/ha): 30; Plant response rating (barnyardgrass [4]; 250 g ai/ha): 50; Plant response rating (crabgrass, Brazilian [5]; 62 g ai/ha): 98; Plant response rating (crabgrass, Brazilian [5]; 125 g ai/ha): 98; Plant response rating (crabgrass, Brazilian [5]; 250 g ai/ha): 100; Plant response rating (corn; 16 g ai/ha): 5; Plant response rating (corn; 31 g ai/ha): 5; Plant response rating (corn; 62 g ai/ha): 5; Plant response rating (corn; 125 g ai/ha): 10; Plant response rating (corn; 250 g ai/ha): 10; Plant response rating (goosegrass; 16 g ai/ha): 50; Plant response rating (goosegrass; 31 g ai/ha): 60; Plant response rating (goosegrass; 62 g ai/ha): 60; Plant response rating (goosegrass; 125 g ai/ha): 75; Plant response rating (goosegrass; 250 g ai/ha): 100; Plant response rating (ragweed; 16 g ai/ha): 0; Plant response rating (ragweed; 31 g ai/ha): 10; Plant response rating (ragweed; 62 g ai/ha): 35; Plant response rating (ragweed; 125 g ai/ha): 65; Plant response rating (ragweed; 250 g ai/ha): 75; Plant response rating (morningglory; 16 g ai/ha): 10; Plant response rating (morningglory; 31 g ai/ha): 40; Plant response rating (morningglory; 125 g ai/ha): 60; Plant response rating (morningglory; 250 g ai/ha): 100; Plant response rating (panicum, fall; 16 g ai/ha): 10; Plant response rating (panicum, fall; 31 g ai/ha): 20; Plant response rating (panicum, fall; 62 g ai/ha): 20; Plant response rating (panicum, fall; 125 g ai/ha): 20; Plant response rating (panicum, fall; 250 g ai/ha): 30; Plant response rating (soybean [6]; 16 g ai/ha): 40; Plant response rating (soybean [6]; 31 g ai/ha): 40; Plant response rating (soybean [6]; 62 g ai/ha): 50; Plant response rating (soybean [6]; 125 g ai/ha): 50; Plant response rating (soybean [6]; 250 g ai/ha): 65; Plant response rating (arrowleaf sida; 16 g ai/ha): 0; Plant response rating (arrowleaf sida; 31 g ai/ha): 10; Plant response rating (arrowleaf sida; 62 g ai/ha): 20; Plant response rating (arrowleaf sida; 125 g ai/ha): 20; Plant response rating (arrowleaf sida; 250 g ai/ha): 50; Plant response rating (dayflower, VA; 16 g ai/ha): 20; Plant response rating (dayflower, VA; 31 g ai/ha): 25; Plant response rating (dayflower, VA; 62 g ai/ha): 40; Plant response rating (dayflower, VA; 125 g ai/ha): 50; Plant response rating (dayflower, VA; 250 g ai/ha): 50; Plant response rating (soybean [7]; 16 g ai/ha): 0; Plant response rating (soybean [7]; 31 g ai/ha): 0; Plant response rating (soybean [7]; 62 g ai/ha): 0; Plant response rating (soybean [7]; 125 g ai/ha): 10; Plant response rating (soybean [7]; 250 g ai/ha): 35; Plant response rating (barnyardgrass [8]; 16 g ai/ha): 10; Plant response rating (barnyardgrass [8]; 31 g ai/ha): 10; Plant response rating (barnyardgrass [8]; 62 g ai/ha): 15; Plant response rating (barnyardgrass [8]; 125 g ai/ha): 20; Plant response rating (barnyardgrass [8]; 250 g ai/ha): 30
